# Measurements reported in article PMC6895203, “Conformational pathway provides unique sensitivity to a synaptic mGluR” (Nature Communications, 2019).
# “And” between values parts separate entries of the source, which are not always exact repeats. Identical values can stand only once.
# Columns and labels:
# SNAP-mGluR4/4 homodimer = target: T1, SNAP-mGluR4/4 homodimer (Rattus norvegicus, UniProt P31423); test: Live-cell ensemble FRET of SNAP-mGluR4/4 homodimer in HEK293 cells; type: cell-based
# T1 construct: HA (N); expressed in transfected cells; host or cells: HEK293 / HEK293T
# T1 sequence (P31423 33-912): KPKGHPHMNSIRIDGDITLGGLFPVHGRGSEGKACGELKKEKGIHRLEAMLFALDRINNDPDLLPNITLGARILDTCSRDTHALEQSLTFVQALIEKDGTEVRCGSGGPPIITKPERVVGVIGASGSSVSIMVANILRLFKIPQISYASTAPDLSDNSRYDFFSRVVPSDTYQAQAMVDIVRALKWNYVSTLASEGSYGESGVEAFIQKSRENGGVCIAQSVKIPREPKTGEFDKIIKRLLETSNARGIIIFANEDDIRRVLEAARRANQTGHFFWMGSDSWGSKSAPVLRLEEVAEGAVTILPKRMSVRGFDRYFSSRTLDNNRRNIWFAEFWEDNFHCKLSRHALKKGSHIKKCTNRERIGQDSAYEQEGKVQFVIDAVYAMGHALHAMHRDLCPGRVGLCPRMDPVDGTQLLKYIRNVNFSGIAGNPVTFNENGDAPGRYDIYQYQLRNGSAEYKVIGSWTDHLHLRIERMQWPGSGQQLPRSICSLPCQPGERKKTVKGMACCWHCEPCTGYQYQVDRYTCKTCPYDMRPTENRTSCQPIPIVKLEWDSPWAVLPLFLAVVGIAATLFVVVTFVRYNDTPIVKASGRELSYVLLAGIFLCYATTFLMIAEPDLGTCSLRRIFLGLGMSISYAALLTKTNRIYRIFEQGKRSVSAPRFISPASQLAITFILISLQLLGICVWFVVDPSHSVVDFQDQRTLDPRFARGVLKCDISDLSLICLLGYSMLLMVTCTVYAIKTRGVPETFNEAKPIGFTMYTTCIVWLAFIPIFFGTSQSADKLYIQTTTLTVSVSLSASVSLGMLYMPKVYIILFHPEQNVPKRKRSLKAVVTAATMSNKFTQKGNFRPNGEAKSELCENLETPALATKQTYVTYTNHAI
# Procedure: (§1) After labeling, cells were mounted on an upright, scanning confocal microscope (Zeiss LSM 780) and imaged with a 20X objective. […] Clusters of cells were analyzed together and FRET was calculated as FRET = (IA)/(ID + IA), in which ID is the fluorescence donor intensity and IA is the fluorescence acceptor intensity. […] Fitting of dose–response curves was performed using Prism (Graphpad). […] Drugs were delivered with a gravity-driven perfusion system.
# [1] = target: SNAP-mGluR7/SNAP-mGluR7 homodimer (mGluR7/7) (Rattus norvegicus, UniProt P35400); test: smFRET on isolated immune-purified SNAP-mGluR7/7 dimers; settings: read-out: EC50 of low FRET peak concentration-response (apparent affinity); smFRET, isolated receptor
# Sequence of SNAP-mGluR7/SNAP-mGluR7 homodimer (mGluR7/7) (P35400 35-915): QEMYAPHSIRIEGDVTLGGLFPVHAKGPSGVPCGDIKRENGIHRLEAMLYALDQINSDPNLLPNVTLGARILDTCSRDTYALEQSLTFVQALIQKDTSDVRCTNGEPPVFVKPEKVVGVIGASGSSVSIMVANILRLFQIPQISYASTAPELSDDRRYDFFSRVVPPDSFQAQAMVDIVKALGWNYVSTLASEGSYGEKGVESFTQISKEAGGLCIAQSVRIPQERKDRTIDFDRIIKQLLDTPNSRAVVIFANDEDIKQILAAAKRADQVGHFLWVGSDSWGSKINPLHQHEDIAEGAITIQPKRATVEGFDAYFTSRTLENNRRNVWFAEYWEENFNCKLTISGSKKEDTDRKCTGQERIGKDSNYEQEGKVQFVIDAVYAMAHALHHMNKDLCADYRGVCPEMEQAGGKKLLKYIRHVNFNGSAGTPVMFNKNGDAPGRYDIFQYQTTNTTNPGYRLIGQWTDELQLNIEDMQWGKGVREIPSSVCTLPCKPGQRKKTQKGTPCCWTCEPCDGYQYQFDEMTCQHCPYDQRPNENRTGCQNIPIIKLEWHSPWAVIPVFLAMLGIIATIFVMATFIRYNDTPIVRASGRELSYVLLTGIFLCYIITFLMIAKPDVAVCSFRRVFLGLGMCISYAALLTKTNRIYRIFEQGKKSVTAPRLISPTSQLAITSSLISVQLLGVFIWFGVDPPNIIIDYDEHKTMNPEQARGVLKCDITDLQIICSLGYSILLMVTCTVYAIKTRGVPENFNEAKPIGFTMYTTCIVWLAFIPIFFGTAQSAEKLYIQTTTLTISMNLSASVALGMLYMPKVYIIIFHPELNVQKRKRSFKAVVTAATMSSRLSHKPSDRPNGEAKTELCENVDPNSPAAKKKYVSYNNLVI
# mGluR7(K319C) = target: T2, mGluR7(K319C) (Rattus norvegicus, UniProt P35400, K319C); type: cell-based; settings: vs wild-type mGluR7
# T2 construct: expressed in transfected cells; host or cells: HEK293 / HEK293T
# T2 sequence (P35400 35-915 K319C): as the sequence (P35400 35-915) above, with K285C counted along it
# From the text: (§2) Illumination was applied to the entire field of view using either a Polychrome V monochromator (TILL Photonics) through a 20× objective, or a Lambda DG4 high-speed wavelength switcher (Sutter Instruments) with 380 nm and 500 nm filters through a 40× objective. pClamp software was used for both data acquisition and control of illumination.
# [2] = target: T3, CLIP-mGluR2/SNAP-mGluR7 heterodimer (mGluR2/7) (Rattus norvegicus, UniProt P31421+P35400); test: Live-cell ensemble FRET of mGluR2/7 heterodimer in HEK293 cells; type: cell-based; set-up: Flag (N); HA (N); made in house; host or cells: HEK293T; settings: for normalized FRET response (Figure 3c titration), AVG: right block
# T3 sequence (P31421 19-872): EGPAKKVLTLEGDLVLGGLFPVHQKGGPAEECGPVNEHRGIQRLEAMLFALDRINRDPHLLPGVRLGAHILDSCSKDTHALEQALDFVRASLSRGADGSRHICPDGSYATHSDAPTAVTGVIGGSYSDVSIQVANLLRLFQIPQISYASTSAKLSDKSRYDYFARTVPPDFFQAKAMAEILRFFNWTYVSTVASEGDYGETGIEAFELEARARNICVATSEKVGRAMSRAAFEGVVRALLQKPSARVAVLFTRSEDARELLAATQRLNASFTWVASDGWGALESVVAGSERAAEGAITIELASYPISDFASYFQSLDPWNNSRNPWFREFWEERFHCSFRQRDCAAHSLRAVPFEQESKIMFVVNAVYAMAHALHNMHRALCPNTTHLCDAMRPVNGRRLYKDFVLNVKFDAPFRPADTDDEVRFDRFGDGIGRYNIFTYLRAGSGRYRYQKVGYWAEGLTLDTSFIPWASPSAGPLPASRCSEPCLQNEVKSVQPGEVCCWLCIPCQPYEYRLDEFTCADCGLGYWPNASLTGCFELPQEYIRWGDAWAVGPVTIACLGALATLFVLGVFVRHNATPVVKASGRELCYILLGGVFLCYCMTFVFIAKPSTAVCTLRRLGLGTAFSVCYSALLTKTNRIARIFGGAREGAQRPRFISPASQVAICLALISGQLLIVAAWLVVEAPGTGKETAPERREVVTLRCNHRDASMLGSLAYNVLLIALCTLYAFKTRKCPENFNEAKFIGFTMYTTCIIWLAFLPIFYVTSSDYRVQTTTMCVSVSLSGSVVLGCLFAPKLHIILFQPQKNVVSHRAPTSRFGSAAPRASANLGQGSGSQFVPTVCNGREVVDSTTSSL
# T3 sequence (P35400 35-915): as the sequence (P35400 35-915) above
# Procedure: The co-expression of SNAP-mGluR7 and CLIP-mGluR2 is expected to yield three dimer stoichiometries: the homodimeric SNAP-mGluR7/SNAP-mGluR7; the homodimeric CLIP-mGluR2/CLIP-mGluR2, and the heterodimeric SNAP-mGluR7/CLIP-mGluR2. Of these, only the heterodimer combines the donor and acceptor and produces a FRET signal.
# as §1
# mGluR5/mGluR5(YADA) = settings: cited from earlier work
# [3] = target: SNAP-mGluR2/SNAP-mGluR2 homodimer (mGluR2/2) (Rattus norvegicus, UniProt P31421); test: Live-cell ensemble FRET of SNAP-mGluR2/2 homodimer in HEK293T cells; type: cell-based; set-up: HA (N); made in house; host or cells: HEK293T; settings: for normalized FRET response (Figure 3c titration), AVG: left block
# Sequence of SNAP-mGluR2/SNAP-mGluR2 homodimer (mGluR2/2) (P31421 19-872): as the sequence (P31421 19-872) above
# Procedure: as §1
# SNAP-mGluR2(F756D) = target: T4, SNAP-mGluR2(F756D) (Rattus norvegicus, UniProt P31421, F756D); test: Whole-cell patch clamp of GIRK1 current, SNAP-mGluR2(F756D) expressed alone; type: cell-based; settings: SNAP-mGluR2-F756D alone; 1 mM Glu; single cells
# T4 construct: HA (N); expressed in transfected cells; host or cells: HEK293 / HEK293T
# T4 sequence (P31421 19-872 F756D): as the sequence (P31421 19-872) above, with F738D counted along it
# From the text: We explored this further by examining trans-activation, whereby binding of ligand to one subunit activates G-protein interaction in the partner subunit[46],[47]. To specifically activate only the mGluR2 subunit of the mGluR2/7 heterodimer, we selectively attached a photoswitched tethered ligand to mGluR2.
# as §2
# [4] = target: T5, CLIP-mGluR2/SNAP-mGluR2(YADA) dimer (Rattus norvegicus, UniProt P31421, D295A/Y216A); test: smFRET on CLIP-mGluR2/SNAP-mGluR2(YADA) dimers; type: biochemical; settings: for mGluR2/2(YADA) Histogram area: Figure 4c
# T5 construct: Flag (N); HA (N); made in house; host or cells: HEK293T
# T5 sequence (P31421 19-872, stated change not applied): as the sequence (P31421 19-872) above
# T5 sequence (P31421 19-872 Y216A/D295A): as the sequence (P31421 19-872) above, with Y198A, D277A counted along it
# From the text: To examine this, we tested the behavior of a heterodimer that co-assembles a wild-type mGluR2 with a binding site mutant version of mGluR2, mGluR2 (Y216A and D295A; known as the YADA mutant). […] We co-expressed CLIP-mGluR2 and SNAP-mGluR2(YADA) and labeled with the SNAP-selective acceptor dye BG-Alexa-647 and the CLIP-selective donor dye BC-DY-547. […] These findings indicate that closure of a single wild-type mGluR2 subunit is much more efficient in activating the receptor when partnered in the dimer with an mGluR7 than with another mGluR2.
# (100 ms time resolution).
# [5] = target: T3, CLIP-mGluR2/SNAP-mGluR7 heterodimer (mGluR2/7); test: smFRET on isolated CLIP-mGluR2/SNAP-mGluR7 heterodimers
structure (smiles),measurement,setting,value
N[C@@H](CCC(=O)O)C(=O)O [glutamate],"titration values, single replicates 1-3","SNAP-mGluR4/4 homodimer; Glu 1e-8, individual replicates",0
same,"titration values, AVG (normalized response)",SNAP-mGluR4/4 homodimer; Glu 1e-7,0.0203
same,"titration values, single replicates 1-3","SNAP-mGluR4/4 homodimer; Glu 1e-7, individual replicates, listed as Glu",0.03656 and 0.01694 and 0.007398
same,"titration values, AVG (normalized response)",SNAP-mGluR4/4 homodimer; Glu 1e-6,0.0444
same,"titration values, single replicates 1-3","SNAP-mGluR4/4 homodimer; Glu 1e-6, individual replicates, listed as Glu",0.05482 and 0.03845 and 0.03991
same,"titration values, AVG (normalized response)",SNAP-mGluR4/4 homodimer; Glu 1e-5,0.4393
same,"titration values, single replicates 1-3","SNAP-mGluR4/4 homodimer; Glu 1e-5, individual replicates, listed as Glu",0.4343 and 0.4025 and 0.481
same,"titration values, AVG (normalized response)",SNAP-mGluR4/4 homodimer; Glu 0.0001,0.8959
same,"titration values, single replicates 1-3","SNAP-mGluR4/4 homodimer; Glu 0.0001, individual replicates, listed as Glu",0.9016 and 0.8805 and 0.9055
same,"titration values, AVG (normalized response)",SNAP-mGluR4/4 homodimer; Glu 0.001 (normalisation point),1
same,"titration values, single replicates 1-3","SNAP-mGluR4/4 homodimer; Glu 0.001 (normalisation point), individual replicates",1
same,EC50,[1],38.3 mM and 38 mM
same,effect of K319C mutation on apparent affinity for glutamate (GIRK current),mGluR7(K319C),did not alter the apparent affinity
same,"major high affinity component, share of total ΔFRET",[2]; live-cell ensemble FRET,~ 80%
same,"minor lower affinity component, share of total ΔFRET",[2]; live-cell ensemble FRET,~ 20%
same,"normalized FRET response (Figure 3c titration), AVG","[2]; Glu 1uM, normalized to 10 mM",0.05708
same,"normalized FRET response (Figure 3c titration), AVG",[2]; Glu 2uM,0.1039
same,"normalized FRET response (Figure 3c titration), AVG",[2]; Glu 5uM,0.2535
same,"normalized FRET response (Figure 3c titration), AVG",[2]; Glu 10uM,0.4051
same,"normalized FRET response (Figure 3c titration), AVG",[2]; Glu 20uM,0.6543
same,"normalized FRET response (Figure 3c titration), AVG",[2]; Glu 50uM,0.6971
same,"normalized FRET response (Figure 3c titration), AVG",[2]; Glu 100uM,0.7929
same,"normalized FRET response (Figure 3c titration), AVG",[2]; Glu 200uM,0.7943
same,"normalized FRET response (Figure 3c titration), AVG",[2]; Glu 500uM,0.8921
same,"normalized FRET response (Figure 3c titration), AVG",[2]; Glu 1mM,0.9417
same,"normalized FRET response (Figure 3c titration), AVG",[2]; Glu 2mM,1.009
same,"normalized FRET response (Figure 3c titration), AVG",[2]; Glu 10mM (normalization point),1
same,"first low glutamate concentration component, share of maximal activation",mGluR5/mGluR5(YADA),~ 20%
same,"fractional change in FRET (Figure 1c), Average","[3]; 1 mM glutamate, live cells",0.0345
same,"normalized FRET response (Figure 3c titration), AVG","[3]; Glu 1uM, normalized to 10 mM",0.02436
same,"normalized FRET response (Figure 3c titration), AVG",[3]; Glu 5uM,0.1119
same,"normalized FRET response (Figure 3c titration), AVG",[3]; Glu 10uM,0.2744
same,"normalized FRET response (Figure 3c titration), AVG",[3]; Glu 20uM,0.534
same,"normalized FRET response (Figure 3c titration), AVG",[3]; Glu 50uM,0.7966
same,"normalized FRET response (Figure 3c titration), AVG",[3]; Glu 100uM,0.8891
same,"normalized FRET response (Figure 3c titration), AVG",[3]; Glu 200uM,0.9536
same,"normalized FRET response (Figure 3c titration), AVG",[3]; Glu 500uM,0.9786
same,"normalized FRET response (Figure 3c titration), AVG",[3]; Glu 1mM,0.9832
same,"normalized FRET response (Figure 3c titration), AVG",[3]; Glu 10mM (normalization point),1
same,"Current, 1 mM Glu",SNAP-mGluR2(F756D),0
same,mGluR2/2(YADA) Histogram area,[4]; Glu 1e-6,0.0005
same,mGluR2/2(YADA) Histogram area,[4]; Glu 3e-6,0.0013
same,mGluR2/2(YADA) Histogram area,[4]; Glu 1e-5,0.00167
same,mGluR2/2(YADA) Histogram area,[4]; Glu 3e-5,0.00171
same,mGluR2/2(YADA) Histogram area,[4]; Glu 0.0001,0.00339
same,mGluR2/2(YADA) Histogram area,[4]; Glu 0.0003,0.00443
same,mGluR2/2(YADA) Histogram area,[4]; Glu 0.001,0.00578
same,mGluR2/2(YADA) Histogram area,[4]; Glu 0.01,0.00605
same,mGluR2/2(YADA) Histogram area,[4]; Glu 0.1,0.00616
same,maximal occupancy of the low FRET activated conformation,[4]; high glutamate,~ 30%
same,occupancy of the low FRET active state,[5]; 10 μM glutamate,~ 50%
same,smFRET level,[5]; 10 mM glutamate,~ 0.2
same,"minor low affinity component, share",[5]; smFRET,~ 20%
same,occupancy of low FRET activated conformation at top of biphasic relation,[5]; smFRET,full occupancy
same,"major high affinity component (single-subunit liganding), share of maximal activation","[5]; smFRET, top of first component at 1 mM glutamate",~ 80%
